Active and inactive are the calls of the source. The rule behind the calls is not given here.
These compounds were tested against Influenza A virus M2 proton channel (A/TW/4845/1999 H1N1) (assay: NMR binding screen, influenza A virus M2 proton channel, Kd (AID 1549)). Details: M2 protein.

Compound	Kd
O=S1(=O)C=C(Nc2ccccc2)CC1	> 4 mM (inactive)
COc1ccc(-c2coc3cc(O)ccc3c2=O)c(O)c1O	> 4 mM (inactive)
N/C(=N/S(=O)(=O)c1cccs1)c1ccccc1	> 4 mM (inactive)
O=C(NS(=O)(=O)c1ccccc1)c1ccccc1F	> 4 mM (inactive)
O=C(c1ccc2c(c1)OCO2)N1CCC2(CC1)OCCO2	> 4 mM (inactive)
Cn1c(=O)c2cn3ncccc3c2n(C)c1=O	> 4 mM (inactive)
CCn1nnc(NC(=O)c2ccccc2Br)n1	> 4 mM (inactive)
O=S(=O)(Cc1ccc(Cl)cc1)N1CCCC1	> 4 mM (inactive)
C#CCCCCCCCCCCCC(=O)CC(O)COC(C)=O (stereo not drawn)	> 4 mM (inactive)
OCCCc1nc2ccc(C(F)(F)F)cc2[nH]1	> 4 mM (inactive)
O=C(c1cc(-c2ccccc2)on1)N1CCCC1	> 4 mM (inactive)
CC[C@@]1(O)C[C@H](O)c2c(cc3c(c2O)C(=O)c2c(O)ccc(O)c2C3=O)[C@H]1C(=O)OC	> 4 mM (inactive)
Cn1nnc2c(N3CCC(C(N)=O)CC3)ncnc21	> 4 mM (inactive)
Cn1c(NCC(=O)O)nc2c1c(=O)[nH]c(=O)n2C	> 4 mM (inactive)
Cc1cc(=O)n2ncn(Cc3ccccc3)c2n1	> 4 mM (inactive)
COc1ccc(N=C2NC(=O)CS2)cc1	> 4 mM (inactive)
CN(C)N1C(=O)C2C3C=CC(O3)C2C1=O (stereo not drawn)	> 4 mM (inactive)
Cc1cc(C)c2nncn2n1	> 4 mM (inactive)
COc1ccc(-c2cc(=O)c3c(OC(C)=O)cc(OC(C)=O)cc3o2)cc1	> 4 mM (inactive)
CC(=O)Nc1cc(O)cc(O)c1	> 4 mM (inactive)

Compound	Kd
c1ccc(NCc2nc(-c3ccccc3)no2)cc1	> 4 mM (inactive)
Nc1cccc(F)c1-c1ncon1	> 4 mM (inactive)
C=C1CCC(=O)C(C)CCC2C1CC2(C)C (stereo not drawn)	> 4 mM (inactive)
O=C1CSC(=S)N1N1C(=O)C2C3C=CC(C3)C2C1=O (stereo not drawn)	> 4 mM (inactive)
CC1=CC(=O)NC2C=CC=CC12 (stereo not drawn)	> 4 mM (inactive)
CN1CCC2(CC1)CC1CC3C=CC1(CN2)O3 (stereo not drawn)	> 4 mM (inactive)
CN(C)C(=O)N1CCN(C(=O)c2ccco2)CC1	> 4 mM (inactive)
COc1ccccc1-c1noc(-c2ccco2)n1	> 4 mM (inactive)
Nc1nc2ccc(C(=O)O)cc2s1	> 4 mM (inactive)
CC1SC(=NC(=O)c2ccco2)NC1=O (stereo not drawn)	> 4 mM (inactive)
Cc1ccc2[nH]cc(CCN)c2c1	> 4 mM (inactive)
Cn1c(SCC(N)=O)nnc1-c1c[nH]c2ccccc12	> 4 mM (inactive)
CCOc1cc(S(=O)(=O)n2nc(C)cc2C)ccc1F	> 4 mM (inactive)
NCc1cn2ccccc2n1	> 4 mM (inactive)
C=CCCCCCCCCCCCC(O)CC(O)COC(C)=O (stereo not drawn)	> 4 mM (inactive)
c1ccc(Cc2nnc3sc(-c4ccccn4)nn23)cc1	> 4 mM (inactive)
COc1cccc(Oc2ccc(N)cc2)c1	> 4 mM (inactive)
O=c1c(-c2ccc(O)cc2)coc2cc(O)ccc12	> 4 mM (inactive)
O=C1C2CC=CCC2C(=O)N1c1cccc(O)c1 (stereo not drawn)	> 4 mM (inactive)
OCc1ccc(OC(F)(F)F)cc1	> 4 mM (inactive)

Compound	Kd
C/C=C(\C)C(=O)OC1[C@@H]2C=C3C(CC[C@]4(C)C3CC(=O)O[C@H]4c3ccoc3)C(C)(C2=O)[C@@H](C(O)C(=O)OC)C1(C)C (stereo partly drawn)	> 4 mM (inactive)
O=C1CCCN1C(=O)c1ccc(F)cc1	> 4 mM (inactive)
C=CCCCCCCCCCCCC(O)CC(O)CO (stereo not drawn) (tested in a mixture with another compound)	> 4 mM (inactive)
NC(=O)CSc1ccc2nnc(-c3ccccc3)n2n1	> 4 mM (inactive)
COc1c2ccccc2nc2occc12	> 4 mM (inactive)
CC1=CC2C(CC1=O)C(C)=CCC2C(C)C (stereo not drawn)	> 4 mM (inactive)
NC1=C([N+](=O)[O-])C(=O)c2ccccc21	> 4 mM (inactive)
CC(=O)Oc1ccc2c(c1C(C)C)CCC1C(C)(C)CCC[C@]21C (stereo partly drawn)	> 4 mM (inactive)
Oc1ccccc1-c1cc(C(F)(F)F)[nH]n1	> 4 mM (inactive)
Cc1cc(C)n2c(SCc3c(C)noc3C)nnc2n1	> 4 mM (inactive)
CC(C)=CCCC1(C)C=Cc2c(O)c3c(c(CC=C(C)C)c2O1)OC12C(=CC4CC1C(C)(C)OC2(C/C=C(/C)C(=O)O)C4=O)C3=O (stereo not drawn)	> 4 mM (inactive)
Cc1cc(C(=O)N2CCN(S(C)(=O)=O)CC2)cs1	> 4 mM (inactive)
CN1C(=O)/C(=C/c2ccc(O)cc2O)SC1=S	> 4 mM (inactive)
O=C1CC(c2ccccc2)n2ncnc2N1 (stereo not drawn)	> 4 mM (inactive)
NC(=O)CSc1ccc(-c2ccccc2)nn1	> 4 mM (inactive)
Cc1nn(-c2ccccc2)nc1CO	> 4 mM (inactive)
C/C=C(\C)c1nnc(NC(=O)c2ccco2)s1	> 4 mM (inactive)
O=C(C1CCCCC1)N1CCN(c2ccccc2F)CC1	> 4 mM (inactive)
